How the values were obtained:
[1] = target: human arginase II (ARG II) (Homo sapiens (Human), UniProt P78540); test: Inhibition of arginase II, spectrophotometric urea assay at 530 nm; assay type: biochemical; conditions: potency rank 1-5; pH 7.4, 37° C., 60 minutes
Description: (§1) Inhibition of arginase I (ARG I) and arginase II (ARG II) by Formula I or Formula II compounds is followed spectrophotometrically at 530 nm. The compound to be tested was dissolved in DMSO at an initial concentration 50-fold greater than its final concentration in the cuvette. 10 μl of the stock solution was diluted in 90 μl of the assay buffer that comprises 0.1M sodium phosphate buffer containing 130 mM NaCl, pH 7.4, to which is added ovalbumin (OVA) at a concentration of 1 mg/ml. Solutions of arginase I and II were prepared in 100 mM sodium phosphate buffer, pH 7.4 containing 1 mg/ml of OVA to give an arginase stock solution at a final concentration of 100 ng/ml.
(§2) To each well of a 96-well microtiter plate was added 40 μl of enzyme, 10 μl of an inventive compound and 10 μl of enzyme substrate (L-arginine+manganese sulfate). For wells that were used as positive controls, only the enzyme and its substrate were added, while wells used as negative controls contained only manganese sulfate.
(§3) After incubating the microtiter plate at 37° C. for 60 minutes, 150 μl of a urea reagent obtained by combining equal proportions (1:1) of reagents A and B is added to each well of the microtiter plate to stop the reaction. The urea reagent is made just before use by combining Reagent A (10 mM o-phthaldialdehyde, and 0.4% polyoxyethylene (23) lauryl ether (w/v) in 1.8 M sulfuric acid) with Reagent B (1.3 mM primaquine diphosphate, 0.4% polyoxyethylene (23) lauryl ether (w/v), 130 mM boric acid in 3.6 mM sulfuric acid). After quenching the reaction mixture, the microtiter plate is allowed to stand for an additional 10 minutes at room temperature to allow the color to develop. The inhibition of arginase was computed by measuring the optical density (OD) of the reaction mixture at 530 nm and normalizing the OD value to percent inhibition observed in the control. The normalized OD is then used to generate a dose-response curve by plotting the normalized OD values against log [concentration] and using regression analysis to compute the IC50 values.

human arginase I (ARG I) = human arginase I (ARG I) (Homo sapiens (Human), UniProt P05089); test: Inhibition of arginase I, spectrophotometric urea assay at 530 nm; assay type: biochemical; conditions: potency rank 1-5; pH 7.4, 37° C., 60 minutes
Sequence of human arginase I (ARG I) (P05089 whole entry): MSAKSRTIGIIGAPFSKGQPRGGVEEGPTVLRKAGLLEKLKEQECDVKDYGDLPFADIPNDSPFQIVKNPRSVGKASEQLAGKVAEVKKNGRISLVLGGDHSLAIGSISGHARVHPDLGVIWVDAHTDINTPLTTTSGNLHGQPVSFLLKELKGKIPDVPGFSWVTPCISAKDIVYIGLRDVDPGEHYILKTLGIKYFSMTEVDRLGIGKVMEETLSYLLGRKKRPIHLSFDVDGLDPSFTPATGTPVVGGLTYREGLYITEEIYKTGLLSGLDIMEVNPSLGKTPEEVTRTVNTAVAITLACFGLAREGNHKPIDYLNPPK
Description: as §1, §2, §3

Sequence of human arginase II (ARG II) (P78540 23-354): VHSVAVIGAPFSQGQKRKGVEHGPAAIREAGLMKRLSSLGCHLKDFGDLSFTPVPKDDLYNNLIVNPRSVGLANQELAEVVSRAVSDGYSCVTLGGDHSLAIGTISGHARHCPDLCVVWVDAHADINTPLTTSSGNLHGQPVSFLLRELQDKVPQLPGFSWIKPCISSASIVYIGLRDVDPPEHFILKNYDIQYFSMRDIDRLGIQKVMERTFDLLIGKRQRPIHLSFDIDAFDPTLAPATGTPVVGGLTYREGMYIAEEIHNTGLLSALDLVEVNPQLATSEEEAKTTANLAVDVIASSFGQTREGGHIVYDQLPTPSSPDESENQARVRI

| SMILES | IC50 [1] | IC50 (human arginase I (ARG I)) |
| --- | --- | --- |
| N[C@@]1(C(=O)O)CN(C(=O)C2Cc3ccccc3CN2)C[C@@H]1CCCB(O)O (mixture of isomers) [Example 53, (3R,4S)-3-amino-4-(3-boronopropyl)-1-(1,2,3,4-tetrahydroisoquinoline-3-carbonyl)pyrrolidine-3-carboxylic acid] | 251 to 1000 nM | 0.1 to 250 nM |
| NC(Cc1ccc(C(F)(F)F)cc1)C(=O)N1C[C@H](CCCB(O)O)[C@](N)(C(=O)O)C1 (mixture of isomers) [Example 54, (3R,4S)-3-amino-1-(2-amino-3-(4-(trifluoromethyl)phenyl)propanoyl)-4-(3-boronopropyl)pyrrolidine-3-carboxylic acid] | 1000 to 2000 nM | 251 to 1000 nM |
| NC(Cc1ccccc1)CN1C[C@H](CCCB(O)O)[C@](N)(C(=O)O)C1 (mixture of isomers) [Example 57, (3R,4S)-3-amino-1-(2-amino-3-phenylpropyl)-4-(3-boronopropyl)pyrrolidine-3-carboxylic acid] | 0.1 to 250 nM | 0.1 to 250 nM |
| N[C@@]1(C(=O)O)CCC[C@@H]1CCCB(O)O (racemic) [Example 1, (1S,2S)-1-amino-2-(3-boronopropyl)cyclopentanecarboxylic acid] | 251 to 1000 nM | 251 to 1000 nM |
| N[C@@]1(C(=O)O)CN(C(=O)c2ccc(F)cc2)C[C@@H]1CCCB(O)O (racemic) [Example 46, (3R,4S)-3-amino-4-(3-boronopropyl)-1-(4-fluorobenzoyl)pyrrolidine-3-carboxylic acid] | 251 to 1000 nM | 251 to 1000 nM |
| N[C@@]1(C(=O)O)CN(C(=O)Nc2ccc(F)cc2)C[C@@H]1CCCB(O)O (racemic) [Example 48, (3R,4S)-3-amino-4-(3-boronopropyl)-1-(4-fluorophenylcarbamoyl)pyrrolidine-3-carboxylic acid] | 251 to 1000 nM | 251 to 1000 nM |
| N[C@@]1(C(=O)O)C[C@@H](NCc2ccccc2)C[C@@H]1CCCB(O)O (racemic) [Example 62, (1S,2S,4S)-1-amino-4-(benzylamino)-2-(3-boronopropyl)cyclopentanecarboxylic acid] | 0.1 to 250 nM | 0.1 to 250 nM |
| CN(C)[C@H]1C[C@H](CCCB(O)O)[C@](N)(C(=O)O)C1 (racemic) [Example 63, (1S,2S,4S)-1-amino-2-(3-boronopropyl)-4-(dimethylamino)cyclopentanecarboxylic acid] | 0.1 to 250 nM | 0.1 to 250 nM |
| NC[C@@H]1C[C@H](CCCB(O)O)[C@](N)(C(=O)O)C1 (racemic) [Example 64, (1S,2S,4R)-1-amino-4-(aminomethyl)-2-(3-boronopropyl)cyclopentanecarboxylic acid] | 0.1 to 250 nM | 0.1 to 250 nM |
| NC[C@H]1C[C@H](CCCB(O)O)[C@](N)(C(=O)O)C1 (racemic) [Example 65, (1S,2S,4S)-1-amino-4-(aminomethyl)-2-(3-boronopropyl)cyclopentanecarboxylic acid] | 1000 to 2000 nM | 251 to 1000 nM |
| NCC[C@H]1C[C@H](CCCB(O)O)[C@](N)(C(=O)O)C1 (racemic) [Example 66, (1S,2S,4R)-1-amino-4-(2-aminoethyl)-2-(3-boronopropyl)cyclopentanecarboxylic acid] | 0.1 to 250 nM | 0.1 to 250 nM |
| N[C@@]1(C(=O)O)CCC[C@H]1CCCB(O)O [Example 2, (1S,2R)-1-amino-2-(3-boronopropyl)cyclopentanecarboxylic acid] | > 5000 nM | > 5000 nM |
| N[C@@]1(C(=O)O)CCO[C@@H]1CCCB(O)O [Example 3, (2R,3S)-3-amino-2-(3-boronopropyl)tetrahydrofuran-3-carboxylic acid] | 2000 to 5000 nM | 1000 to 2000 nM |
| N[C@@]1(C(=O)O)CCO[C@H]1CCCB(O)O [Example 4, (2S,3S)-3-amino-2-(3-boronopropyl)tetrahydrofuran-3-carboxylic acid] | 0.1 to 250 nM | 0.1 to 250 nM |
| NC1(C(=O)O)CCSC1CCCB(O)O (stereo not drawn) [Example 5, 3-amino-2-(3-boronopropyl)tetrahydrothiophene-3-carboxylic acid] | 2000 to 5000 nM | 1000 to 2000 nM |
| N[C@@]1(C(=O)O)CCNC[C@H]1CCCB(O)O [Example 6, (3R,4S)-4-amino-3-(3-boronopropyl)piperidine-4-carboxylic acid] | 2000 to 5000 nM | 251 to 1000 nM |
| N[C@@]1(C(=O)O)CCNC[C@@H]1CCCB(O)O [Example 7, (3S,4S)-4-amino-3-(3-boronopropyl)piperidine-4-carboxylic acid] | 251 to 1000 nM | 251 to 1000 nM |
| N[C@@]1(C(=O)O)CNC[C@@H]1CCCB(O)O [Example 8, (3R,4S)-3-amino-4-(3-boronopropyl)pyrrolidine-3-carboxylic acid] | 251 to 1000 nM | 251 to 1000 nM |
| N[C@@]1(C(=O)O)CNC[C@H]1CCCB(O)O [Example 9, (3R,4R)-3-amino-4-(3-boronopropyl)pyrrolidine-3-carboxylic acid] | 1000 to 2000 nM | 1000 to 2000 nM |
| N[C@@]1(C(=O)O)CCN[C@@H]1CCCB(O)O [Example 10, (2R,3S)-3-amino-2-(3-boronopropyl)pyrrolidine-3-carboxylic acid] | > 5000 nM | > 5000 nM |
| CC(C)CN1C[C@H](CCCB(O)O)[C@](N)(C(=O)O)C1 [Example 11, (3R,4S)-3-amino-4-(3-boronopropyl)-1-isobutylpyrrolidine-3-carboxylic acid] | 1000 to 2000 nM | 251 to 1000 nM |
| N[C@@]1(C(=O)O)CN(Cc2ccccc2)C[C@@H]1CCCB(O)O [Example 12, (3R,4S)-3-amino-1-benzyl-4-(3-boronopropyl)pyrrolidine-3-carboxylic acid] | 1000 to 2000 nM | 251 to 1000 nM |
| N[C@@]1(C(=O)O)CN(Cc2cccnc2)C[C@@H]1CCCB(O)O [Example 13, (3R,4S)-3-amino-4-(3-boronopropyl)-1-(pyridin-3-ylmethyl)pyrrolidine-3-carboxylic acid] | 1000 to 2000 nM | 251 to 1000 nM |
| NC1CCCC1N1C[C@H](CCCB(O)O)[C@](N)(C(=O)O)C1 (stereo partly drawn) [Example 14, (3R,4S)-3-amino-1-(2-aminocyclopentyl)-4-(3-boronopropyl)pyrrolidine-3-carboxylic acid] | 0.1 to 250 nM | 0.1 to 250 nM |
| N[C@@]1(C(=O)O)CN(CC2CCNCC2)C[C@@H]1CCCB(O)O [Example 15] | 1000 to 2000 nM | 251 to 1000 nM |
| N[C@@]1(C(=O)O)CN(CCCc2ccc(C(=O)O)cc2)C[C@@H]1CCCB(O)O [Example 16, (3R,4S)-3-amino-4-(3-boronopropyl)-1-(3-(4-carboxyphenyl)propyl)pyrrolidine-3-carboxylic acid] | 0.1 to 250 nM | 0.1 to 250 nM |
| CN(C)CC(C)(C)CN1C[C@H](CCCB(O)O)[C@](N)(C(=O)O)C1 [Example 17, (3R,4S)-3-amino-4-(3-boronopropyl)-1-(3-(dimethylamino)-2,2-dimethylpropyl)pyrrolidine-3-carboxylic acid] | – | 2000 to 5000 nM |
| N[C@@]1(C(=O)O)CN(CC2CCCNC2)C[C@@H]1CCCB(O)O (stereo partly drawn) [Example 18, (3R,4S)-3-amino-4-(3-boronopropyl)-1-(piperidin-3-ylmethyl)pyrrolidine-3-carboxylic acid] | 251 to 1000 nM | 0.1 to 250 nM |
| N[C@@]1(C(=O)O)CN(Cc2ccnc3ccccc23)C[C@@H]1CCCB(O)O [Example 19, (3R,4S)-3-amino-4-(3-boronopropyl)-1-(quinolin-4-ylmethyl)pyrrolidine-3-carboxylic acid] | 251 to 1000 nM | 251 to 1000 nM |

Reference: patent US10098902B2, “Arginase inhibitors as therapeutics” (Mars, Incorporated, priority 2010, dated 2018)
